The values that follow come from US20250017840A1, “NOVEL SENOTHERAPY PEPTIDE AND COMPOSITION CONTAINING THE SAME” (AMOREPACIFIC CORPORATION, priority 2023, published 2025).

The subject of test [1] is skin senescent cells (aged skin fibroblasts, DI model and RS model). Nature of the test: Survival rate of aged cells (CCK-8), selective apoptosis efficacy on skin senescent cells. The format is cell-based, human. The settings on record: 100 μg/ml for 3 days, FIG. 2; for apoptosis effect of senescent cells (survival rate of aged cells, CCK-8): DI model or RS model skin fibroblasts; for selective apoptosis effect on the senescent cells versus normal cells: senescent versus normal skin fibroblasts. The protocol:
Specifically, in the case of the DI model, the skin fibroblasts (Normal human dermal fibroblasts, Lonza, Switzerland) were cultured in DMEM Medium (Lonza, Switzerland) containing 10% FBS, and then were inoculated into a chamber slide (Thermo Fisher Scientific, USA) at 1×10^3 cells per well and cultured in a CO2 incubator of 5% concentration at 37° C. for 24 hours. The cultured wells were treated with each of Doxorubicin-hydrochloride (Sigma) and IGF-1 (Sigma) in a concentration of 100 ng/ml for 4 days to induce early senescence of the skin fibroblasts. As a control group, the normal skin fibroblasts that were not treated with Dox or IGF-1 were prepared. Thereafter, for the immunofluorescence stain, the cell culture solution was washed with PBS three times and fixed in 4% paraformaldehyde for 30 minutes. Then, the skin fibroblast sample was washed with PBS containing 0.2% Triton X-100 three times, added to PBS containing 3% BSA, and left for 1 hour. Next, the sample was incubated in 1% BSA containing rabbit polyclonal anti-FOXO4 antibody (SAB4501887, Sigma) (1:500 dilution) at 4° C. overnight to allow the antibody to bind to an antigen contained in the skin fibroblasts. Thereafter, the Sample was washed with the PBS three times, incubated with Alexa Fluor®488-conjugated goat polyclonal secondary antibody (A32731, ThermoFisher Scientific) (1:1000 dilution) against rabbit IgG-H&L at a room temperature for 1 hour, and then washed with the PBS three times. Next, a drop of the mounting solution containing DAPI was placed on a microscope slide glass and fixed by raising the coverslip itself. The fixed sample was observed by a confocal microscope (LSM 980, Zeiss, Germany).
In the case of the RS model, the aged skin fibroblasts were prepared by continuously culturing skin fibroblasts (Normal human dermal fibroblasts, Lonza, Switzerland) in DMEM Medium (Lonza, Switzerland) containing 10% FBS over 30 to 40 times. For the immunofluorescence staining test, each of the aged skin fibroblasts (p41) and the normal skin fibroblasts was inoculated into a chamber slide (Thermo Fisher Scientific, USA) at 1×10^3 cells per well, and cultured in a CO2 incubator of 5% concentration at 37° C. for 48 hours. Thereafter, the cell culture solution was washed with PBS three times and fixed in 4% paraformaldehyde for 30 minutes. Next, the skin fibroblast sample was washed with PBS containing 0.2% Triton X-100 three times, added to PBS containing 3% BSA, and left for 1 hour. Then, the sample was incubated in 1% BSA containing a rabbit polyclonal anti-FOXO4 antibody (SAB4501887, Sigma) (1:500 dilution) at 4° C. overnight to allow the antibody to bind to an antigen contained in the skin fibroblasts. Thereafter, the sample was washed with the PBS three times, incubated with Alexa Fluor®488-conjugated goat polyclonal secondary antibody (A32731, ThermoFisher Scientific) (1:1000 dilution) against rabbit IgG-H&L at a room temperature for 1 hour, and then was washed with the PBS three times. […]
As in Test Example 1, after the skin fibroblasts (DI model) that induced senescence by treating with each of Doxorubicin and IGF-1 in a concentration of 100 ng/ml for 4 days or the fibroblasts (RS model) aged by culturing the skin fibroblasts up to passage 40 were treated with a peptide (21a-D) consisting of the amino acid sequence of […] […] ([…]) in each concentration of 100 μg/ml for 3 days, a survival rate of the aged cells was measured. […]

The test system of test [2] is skin senescent cells (DI model and RS model). Nature of the test: SA-β-gal stain and microscopic observation of apoptosis efficacy on skin senescent cells. The format is cell-based, human. The settings on record: treated as in Test Example 2, FIGS. 3A and 3B. The protocol: In the same manner as that of Test Example 2, after the DI model and the RS model were treated with a peptide (21a-D) consisting of the amino acid sequence of […] (SEQ ID NO: 1) and a peptide (FOXO4-DRI) consisting of the amino acid sequence of […] (SEQ ID NO: 4), SA-3-gal (senescent associated-β-galactosidase) stain and microscopic observation were performed to visually confirm an apoptosis efficacy of the skin senescent cells. The SA-3-Gal stain was performed according to the protocol using the Senescence Cell Histochemical Staining Kit (CS0030, Sigma, USA), and after 24 hours of the staining, it was confirmed whether or not the cells were stained through an optical microscope.

The target in the next test is T1, p53 and FOXO4 (Homo sapiens, UniProt P04637).
T1 construct: endogenous in cells; host or cells: skin fibroblasts made senescent with doxorubicin and IGF-1 (DI model)
T1 sequence (P04637 whole entry): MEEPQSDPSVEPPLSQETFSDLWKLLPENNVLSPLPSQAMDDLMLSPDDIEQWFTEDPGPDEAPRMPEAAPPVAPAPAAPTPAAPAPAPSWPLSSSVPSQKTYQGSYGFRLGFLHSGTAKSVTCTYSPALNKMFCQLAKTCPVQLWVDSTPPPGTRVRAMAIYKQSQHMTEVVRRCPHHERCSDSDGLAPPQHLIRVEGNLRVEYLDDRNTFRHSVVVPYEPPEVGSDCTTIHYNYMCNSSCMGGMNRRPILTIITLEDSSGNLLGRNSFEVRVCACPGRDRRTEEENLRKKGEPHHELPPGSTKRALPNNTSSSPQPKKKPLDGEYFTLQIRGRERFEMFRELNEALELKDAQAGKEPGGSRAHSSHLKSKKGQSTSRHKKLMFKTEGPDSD
Nature of the test: Immunofluorescence observation of cytoplasmic movement of p53. In kind it is cell-based. The settings on record: DI-treated aged skin fibroblasts; 100 ug/ml for 3 days; FIG. 4. The protocol:
It was confirmed through the immunofluorescence (IF) stain experiment whether or not this phenomenon was observed when the skin senescent cells were treated with the peptide having the amino acid sequence of SEQ ID NO: 1 according to an embodiment of the present invention. The aged skin fibroblasts treated with DI (Doxorubicin/IGF-1) were treated with the peptide 21a-D in the same manner as in Test Example 2, and then the expression and cytoplasmic movement of FOXO4 and p53 were observed.
Specifically, the skin fibroblasts were inoculated into a chamber slide (Thermo Fisher Scientific, USA) at 1×10^3 cells per well and cultured in a 5% CO2 incubator at 37° C. for 24 hours. The cultured wells were treated with each of Dox and IGF-1 in a concentration of 100 ng/ml for 4 days to induce early senescence of the skin fibroblasts, and then treated with the peptide 21a-D in a concentration of 100 ug/ml for 3 days followed by being further cultured. For immunofluorescence stain, the cell culture solution was washed with PBS three times and fixed by treating it with ice-cold methanol at −20° C. for 10 minutes. Next, it was added into PBS containing 3% BSA and left for 1 hour. […]

For a further test, the system named is MMP-1. Nature of the test: MMP-1 expression in senescent cells by qPCR. In kind it is cell-based, human. The settings on record: DI model senescent cells, treated as in Test Example 2; FIG. 5. On the procedure: After treating the DI model with the peptide (21a-D) consisting of the amino acid sequence of […] (SEQ ID NO: 1) and the peptide (FOXO4-DRI) consisting of the amino acid sequence of […] (SEQ ID NO: 4) in the same manner as in Test Example 2 above, an ability to suppress the expression of MMP-1 in the senescent cells was identified. After recovering the cultured cells, total RNA was isolated using a TRIzol™ solution (TRIzol™ Reagent, Invitrogen) extraction method. 1 μg of the isolated RNA was synthesized into cDNA using reverse transcriptase (RevertAid Firist strand cDNA synthesis kit, Thermofisher), and then diluted to a final concentration of 200 μl. In order to perform PCR, a mixing kit was prepared by mixing […] (Hs00899658_m1, ThermoFisher Scientific), 10 μl of Taqman universal master mix II with UNG (Applied Biosystems), and 5 μl of distilled water to allow the mixture to be diluted to 16 μl. 16 μl of the mixing kit and 4 μl of cDNA were mixed to perform qPCR under the following reaction conditions. The reaction conditions were 95° C., initialization reaction for 10 minutes, denaturation at 95° C. for 15 seconds, annealing at 60° C. for 60 seconds, and extension reaction at 50° C. for 20 seconds, which were set to be performed in a PCR device (7500 Fast Real-time PCR system, Applied Biosystems) with repetition of 40 times.

For AYSQNGWANRRPRRRQRRKKRG [22a-D], in test [1], the “apoptosis effect of senescent cells (survival rate of aged cells, CCK-8)” value (from here on “apoptosis effect of senescent cells”) is “minimal”.
Turning to AYSQNGWANRRRRGGRRRRRR [21a-D], the “selective apoptosis effect on the senescent cells versus normal cells” value in test [1] is “selective apoptosis of only skin senescent cells was induced”. In addition, the “number of senescent cells (SA-β-gal stain, microscopic observation)” value in test [2] was “significantly reduced”. In addition, in the test with p53 and FOXO4, the “binding of p53 and FOXO4 in the nucleus” value is “suppressed the binding of p53 and FOXO4 in the nucleus”; the “cytoplasmic movement of p53 (immunofluorescence)” value is listed as “p53 moved to a cytoplasm in the nucleus”. Further, the “expression of MMP-1 (qPCR, corrected for GAPDH)” value in the test on MMP-1 is “suppressed”.
With “LTLRKEPASEIAQSILEAYSQNGWANRRSGGKRPPPRRRQRRKKRG [FOXO4-DRI, reference compound]”, in test [1], the “apoptosis effect of senescent cells” value was “apoptosis effect had on the senescent cells as well as even on the normal cells” and the “selective apoptosis effect on the senescent cells versus normal cells” value was “weak”.
For the sequence QRKKRRQRRRPRRNAWGNQSYA [22a-L], in test [1], the “apoptosis effect of senescent cells” value is on record as “minimal”.
